Tests used:
Human plasma kallikrein = Human plasma kallikrein (Homo sapiens (Human), UniProt P03952); assay: Kallikrein Assay (fluorogenic substrate Acetyl-K-P-R-AFC); assay type: biochemical; conditions: Plasma Kallikrein (PKal)
Procedure, shortened: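 Ki is derived from IC50 with the Cheng-Prusoff equation, and IC50 from the inflection point of a four-parameter logistic curve. The rate of AFC release is read with 0.5 nM purified enzyme and […] substrate at room temperature or 37 °C.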

human Factor XIa = human Factor XIa (Homo sapiens (Human), UniProt P03951); assay: Factor XIa Assay (fluorogenic substrate GPR-AFC); assay type: biochemical; conditions: Factor XIa (FXIa)
Chain of human Factor XIa (P03951 388-625 limits assumed): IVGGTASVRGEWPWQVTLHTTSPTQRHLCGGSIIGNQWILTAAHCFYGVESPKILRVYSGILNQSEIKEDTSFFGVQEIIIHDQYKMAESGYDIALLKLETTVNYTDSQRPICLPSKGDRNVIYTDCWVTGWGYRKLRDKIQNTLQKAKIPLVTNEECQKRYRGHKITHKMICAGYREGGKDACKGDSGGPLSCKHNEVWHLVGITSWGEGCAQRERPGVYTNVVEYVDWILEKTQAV
Chain of human Factor XIa (P03951 19-387 partner limits assumed): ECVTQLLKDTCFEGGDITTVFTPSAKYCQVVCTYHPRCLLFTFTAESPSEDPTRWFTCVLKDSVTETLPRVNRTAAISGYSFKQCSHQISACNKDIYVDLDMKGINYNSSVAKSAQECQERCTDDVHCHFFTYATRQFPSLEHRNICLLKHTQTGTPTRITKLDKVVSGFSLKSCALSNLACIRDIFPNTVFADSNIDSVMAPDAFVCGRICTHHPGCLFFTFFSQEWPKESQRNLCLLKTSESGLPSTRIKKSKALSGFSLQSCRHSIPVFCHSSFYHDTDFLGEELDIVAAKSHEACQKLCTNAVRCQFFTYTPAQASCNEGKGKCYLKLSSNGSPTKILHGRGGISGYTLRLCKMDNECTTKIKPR

Chain of Human plasma kallikrein (P03952 391-638): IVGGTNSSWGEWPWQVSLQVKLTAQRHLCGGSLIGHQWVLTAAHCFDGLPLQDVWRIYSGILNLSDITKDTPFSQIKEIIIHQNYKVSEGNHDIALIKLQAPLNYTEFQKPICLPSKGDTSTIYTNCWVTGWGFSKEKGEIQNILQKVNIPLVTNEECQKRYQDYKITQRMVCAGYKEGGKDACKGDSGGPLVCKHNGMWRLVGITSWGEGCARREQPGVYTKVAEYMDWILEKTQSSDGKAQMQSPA
Chain of Human plasma kallikrein (P03952 20-390 partner): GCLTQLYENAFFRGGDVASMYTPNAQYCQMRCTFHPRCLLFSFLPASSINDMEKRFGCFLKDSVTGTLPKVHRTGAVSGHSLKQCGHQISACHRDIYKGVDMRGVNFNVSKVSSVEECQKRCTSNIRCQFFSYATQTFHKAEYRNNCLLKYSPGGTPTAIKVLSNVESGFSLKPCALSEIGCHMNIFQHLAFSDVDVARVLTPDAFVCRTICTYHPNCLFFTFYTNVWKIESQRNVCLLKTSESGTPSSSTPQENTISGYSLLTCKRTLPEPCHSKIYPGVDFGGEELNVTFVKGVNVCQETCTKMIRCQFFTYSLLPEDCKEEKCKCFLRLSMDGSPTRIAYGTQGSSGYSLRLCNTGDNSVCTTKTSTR

IC50 (Human plasma kallikrein) [µM]	IC50 (human Factor XIa) [µM]	Structure (SMILES)
0.0146	7.6	Cc1ncc(-c2c(C(F)F)ccc(Cl)c2F)nc1C(=O)Nc1cnn(C(C)c2ccc(N3CC4CC4C3=O)nc2)c1 (single isomer, unassigned) [Example 74, 6-(3-Chloro-6-(difluoromethyl)-2-fluorophenyl)-3-methyl-N-(1-((S or R)-1-(6-((1R,5S or 1S,5R)-2-oxo-3-azabicyclo[3.1.0]hexan-3-yl)pyridin-3-yl)ethyl)-1H-pyrazol-4-yl)pyrazine-2-carboxamide]
0.0048	> 10	Cc1ncc(-c2c(C(F)F)ccc(Cl)c2F)nc1C(=O)Nc1cnn(C(C)c2ccc(N3CC4CC4C3=O)nc2)c1 (single isomer, unassigned) [Example 75, 6-(3-Chloro-6-(difluoromethyl)-2-fluorophenyl)-3-methyl-N-(1-((R or S)-1-(6-((1R,5S or 1S,5R)-2-oxo-3-azabicyclo[3.1.0]hexan-3-yl)pyridin-3-yl)ethyl)-1H-pyrazol-4-yl)pyrazine-2-carboxamide]
0.043	> 10	Cc1ncc(-c2c(C(F)F)ccc(Cl)c2F)nc1C(=O)Nc1cnn(C(C)c2ccc(N3CC4CC4C3=O)nc2)c1 (single isomer, unassigned) [Example 76, 6-(3-Chloro-6-(difluoromethyl)-2-fluorophenyl)-3-methyl-N-(1-((S or R)-1-(6-((1S,5R or 1R,5S)-2-oxo-3-azabicyclo[3.1.0]hexan-3-yl)pyridin-3-yl)ethyl)-1H-pyrazol-4-yl)pyrazine-2-carboxamide]
0.0126	7.92	CC(c1cnc(N2C[C@H]3C[C@H]3C2=O)c(C(F)F)c1)n1cc(NC(=O)c2cncc(-c3c(C(F)F)ccc(Cl)c3F)n2)cn1 (single isomer, unassigned) [Example 77, 6-(3-Chloro-6-(difluoromethyl)-2-fluorophenyl)-N-(1-((S or R)-1-(5-(difluoromethyl)-6-((1R,5S)-2-oxo-3-azabicyclo[3.1.0]hexan-3-yl)pyridin-3-yl)ethyl)-1H-pyrazol-4-yl)pyrazine-2-carboxamide]
0.0027	> 10	CC(c1cnc(N2C[C@H]3C[C@H]3C2=O)c(C(F)F)c1)n1cc(NC(=O)c2cncc(-c3c(C(F)F)ccc(Cl)c3F)n2)cn1 (single isomer, unassigned) [Example 78, 6-(3-Chloro-6-(difluoromethyl)-2-fluorophenyl)-N-(1-((R or S)-1-(5-(difluoromethyl)-6-((1R,5S)-2-oxo-3-azabicyclo[3.1.0]hexan-3-yl)pyridin-3-yl)ethyl)-1H-pyrazol-4-yl)pyrazine-2-carboxamide]
0.0005	0.057	Cc1nc(N2C[C@H]3C[C@H]3C2=O)ncc1C(C)n1cc(NC(=O)c2nc(-c3c(C(F)F)ccc(Cl)c3F)cc(=O)n2C)cn1 (single isomer, unassigned) [Example 79, 4-(3-Chloro-6-(difluoromethyl)-2-fluorophenyl)-1-methyl-N-(1-((S or R)-1-(4-methyl-2-((1R,5S)-2-oxo-3-azabicyclo[3.1.0]hexan-3-yl)pyrimidin-5-yl)ethyl)-1H-pyrazol-4-yl)-6-oxo-1,6-dihydropyrimidine-2-carboxamide]
0.0253	0.284	Cc1nc(N2C[C@H]3C[C@H]3C2=O)ncc1C(C)n1cc(NC(=O)c2nc(-c3c(C(F)F)ccc(Cl)c3F)cc(=O)n2C)cn1 (single isomer, unassigned) [Example 80, 4-(3-Chloro-6-(difluoromethyl)-2-fluorophenyl)-1-methyl-N-(1-((R or S)-1-(4-methyl-2-((1R,5S)-2-oxo-3-azabicyclo[3.1.0]hexan-3-yl)pyrimidin-5-yl)ethyl)-1H-pyrazol-4-yl)-6-oxo-1,6-dihydropyrimidine-2-carboxamide]
0.0262	> 10	Cc1ncc(-c2c(C(F)F)ccc(Cl)c2F)nc1C(=O)Nc1cnn(C(C)c2cnc(N3CCC(O)C3=O)nc2)c1 (single isomer, unassigned) [Example 87, 6-(3-Chloro-6-(difluoromethyl)-2-fluorophenyl)-N-(1-((S or R)-1-(2-((R or S)-3-hydroxy-2-oxopyrrolidin-1-yl)pyrimidin-5-yl)ethyl)-1H-pyrazol-4-yl)-3-methylpyrazine-2-carboxamide]
0.0313	> 10	CC(c1ccc(N2C[C@H]3C[C@H]3C2=O)nc1)n1cc(NC(=O)c2cncc(-c3c(C#N)ccc(Cl)c3F)n2)cn1 (single isomer, unassigned) [Example 89, 6-(3-Chloro-6-cyano-2-fluorophenyl)-N-(1-((S or R)-1-(6-((1R,5S)-2-oxo-3-azabicyclo[3.1.0]hexan-3-yl)pyridin-3-yl)ethyl)-1H-pyrazol-4-yl)pyrazine-2-carboxamide]
0.0137	> 10	CC(c1ccc(N2C[C@H]3C[C@H]3C2=O)nc1)n1cc(NC(=O)c2cncc(-c3c(C#N)ccc(Cl)c3F)n2)cn1 (single isomer, unassigned) [Example 90, 6-(3-Chloro-6-cyano-2-fluorophenyl)-N-(1-((R or S)-1-(6-((1R,SS)-2-oxo-3-azabicyclo[3.1.0]hexan-3-yl)pyridin-3-yl)ethyl)-1H-pyrazol-4-yl)pyrazine-2-carboxamide]
0.0013	> 10	Cc1cc(N2C[C@H]3C[C@H]3C2=O)ccc1C(C)n1cc(NC(=O)c2nc(-c3c(C(F)F)ccc(Cl)c3F)cnc2C)cn1 (single isomer, unassigned) [Example 97, 6-(3-Chloro-6-(difluoromethyl)-2-fluorophenyl)-3-methyl-N-(1-((S or R)-1-(2-methyl-4-((1R,5S)-2-oxo-3-azabicyclo[3.1.0]hexan-3-yl)phenyl)ethyl)-1H-pyrazol-4-yl)pyrazine-2-carboxamide]
0.0014	> 10	Cc1cc(N2C[C@H]3C[C@H]3C2=O)ccc1C(C)n1cc(NC(=O)c2cncc(-c3c(C(F)F)ccc(Cl)c3F)n2)cn1 (single isomer, unassigned) [Example 98, 6-(3-Chloro-6-(difluoromethyl)-2-fluorophenyl)-N-(1-((S or R)-1-(2-methyl-4-((1R,5S)-2-oxo-3-azabicyclo[3.1.0]hexan-3-yl)phenyl)ethyl)-1H-pyrazol-4-yl)pyrazine-2-carboxamide]
0.0491	2.88	Cc1cc(N2C[C@H]3C[C@H]3C2=O)ccc1C(C)n1cc(NC(=O)c2cncc(-c3c(C(F)F)ccc(Cl)c3F)n2)cn1 (single isomer, unassigned) [Example 99, 6-(3-Chloro-6-(difluoromethyl)-2-fluorophenyl)-N-(1-((R or S)-1-(2-methyl-4-((1R,5S)-2-oxo-3-azabicyclo[3.1.0]hexan-3-yl)phenyl)ethyl)-1H-pyrazol-4-yl)pyrazine-2-carboxamide]
0.0017	2	Cc1nc(C(C)n2cc(NC(=O)c3nc(-c4c(C(F)F)ccc(Cl)c4F)cnc3C(F)F)cn2)cnc1N1C[C@H]2C[C@H]2C1=O (single isomer, unassigned) [Example 100, 6-(3-Chloro-6-(difluoromethyl)-2-fluorophenyl)-3-(difluoromethyl)-N-(1-((S or R)-1-(6-methyl-5-((1R,5S)-2-oxo-3-azabicyclo[3.1.0]hexan-3-yl)pyrazin-2-yl)ethyl)-1H-pyrazol-4-yl)pyrazine-2-carboxamide]
0.0006	3.95	Cc1nc(C(C)n2cc(NC(=O)c3nc(-c4c(C(F)F)ccc(Cl)c4F)cnc3C(F)F)cn2)cnc1N1C[C@H]2C[C@H]2C1=O (single isomer, unassigned) [Example 101, 6-(3-Chloro-6-(difluoromethyl)-2-fluorophenyl)-3-(difluoromethyl)-N-(1-((R or S)-1-(6-methyl-5-((1R,5S)-2-oxo-3-azabicyclo[3.1.0]hexan-3-yl)pyrazin-2-yl)ethyl)-1H-pyrazol-4-yl)pyrazine-2-carboxamide]
0.0007	0.739	Cc1cc(C(C)n2cc(NC(=O)c3nc(-c4c(C(F)F)ccc(Cl)c4F)cnc3C)cn2)nnc1N1C[C@H]2C[C@H]2C1=O (single isomer, unassigned) [Example 102, 6-(3-Chloro-6-(difluoromethyl)-2-fluorophenyl)-3-methyl-N-(1-((S or R)-1-(5-methyl-6-((1R,5S)-2-oxo-3-azabicyclo[3.1.0]hexan-3-yl)pyridazin-3-yl)ethyl)-1H-pyrazol-4-yl)pyrazine-2-carboxamide]
0.0018	0.445	Cc1cc(C(C)n2cc(NC(=O)c3nc(-c4c(C(F)F)ccc(Cl)c4F)cnc3C)cn2)nnc1N1C[C@H]2C[C@H]2C1=O (single isomer, unassigned) [Example 103, 6-(3-Chloro-6-(difluoromethyl)-2-fluorophenyl)-3-methyl-N-(1-((R or S)-1-(5-methyl-6-((1R,5S)-2-oxo-3-azabicyclo[3.1.0]hexan-3-yl)pyridazin-3-yl)ethyl)-1H-pyrazol-4-yl)pyrazine-2-carboxamide]
0.0012	0.42	Cc1c(C(C)n2cc(NC(=O)c3cncc(-c4c(OC(F)F)ccc(Cl)c4F)n3)cn2)cnc(N2C[C@H]3C[C@H]3C2=O)c1C (single isomer, unassigned) [Example 104, 6-(3-Chloro-6-(difluoromethoxy)-2-fluorophenyl)-N-(1-((S or R)-1-(4,5-dimethyl-6-((1R,5S)-2-oxo-3-azabicyclo[3.1.0]hexan-3-yl)pyridin-3-yl)ethyl)-1H-pyrazol-4-yl)pyrazine-2-carboxamide]
0.0006	0.101	Cc1c(C(C)n2cc(NC(=O)c3cncc(-c4c(OC(F)F)ccc(Cl)c4F)n3)cn2)cnc(N2C[C@H]3C[C@H]3C2=O)c1C (single isomer, unassigned) [Example 105, 6-(3-Chloro-6-(difluoromethoxy)-2-fluorophenyl)-N-(1-((R or S)-1-(4,5-dimethyl-6-((1R,5S)-2-oxo-3-azabicyclo[3.1.0]hexan-3-yl)pyridin-3-yl)ethyl)-1H-pyrazol-4-yl)pyrazine-2-carboxamide]

Reference: US20230286958A1, “PLASMA KALLIKREIN INHIBITORS” (Merck Sharp & Dohme LLC, priority 2020, published 2023)
